Assay results published in US20190119282A1, “IMIDAZOPYRIDAZINES USEFUL AS INHIBITORS OF THE PAR-2 SIGNALING PATHWAY” (Vertex Pharmaceuticals Incorporated, priority 2013, published 2019).
Marks after values point to notes of the source that are not given here.

What was measured:
[1] = target: T1, PAR2 (HT-29 cells, SLIGKV activation) (Homo sapiens, UniProt P55085); experiment: Ca FLIPR TETRA assay, ANTAGONIST mode, stimulation with 8 μM SLIGKV; assay type: cell-based; settings: HT-29 cells, stimulation with 8 μM SLIGKV
T1 construct: host or cells: HT-29 cells
T1 sequence (P55085 26-397): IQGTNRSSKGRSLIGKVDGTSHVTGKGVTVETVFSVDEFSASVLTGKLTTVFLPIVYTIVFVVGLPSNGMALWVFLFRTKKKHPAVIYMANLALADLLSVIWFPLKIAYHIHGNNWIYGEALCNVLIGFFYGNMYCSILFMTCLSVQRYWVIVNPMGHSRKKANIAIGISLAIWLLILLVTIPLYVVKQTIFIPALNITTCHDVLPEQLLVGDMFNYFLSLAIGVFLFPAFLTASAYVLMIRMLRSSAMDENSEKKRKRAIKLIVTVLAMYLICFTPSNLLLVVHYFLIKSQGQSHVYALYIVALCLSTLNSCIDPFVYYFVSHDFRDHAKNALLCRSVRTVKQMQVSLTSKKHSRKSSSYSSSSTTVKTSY
Summary of the method: (§1)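 Cells plated overnight at 37 °C, 5% CO2 in 1% FBS medium; dye loading 45 min at 37 °C then 15 min r.t.; compound added from DMSO/HBSS dilution; first read for intrinsic Ca2+ activation; 30 min r.t. incubation; antagonist read after addition of the fixed activator (8 μM SLIGKV, 1 U/mL thrombin, 3.1 U/mL trypsin or 0.6 μM UTP).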

[2] = target: T2, PAR2 (HT-29 cells, trypsin activation) (Homo sapiens, UniProt P55085); experiment: Ca FLIPR TETRA assay, ANTAGONIST mode, stimulation with 3.1 U/mL trypsin; assay type: cell-based; settings: HT-29 cells, stimulation with 3.1 U/mL trypsin
T2 construct: host or cells: HT-29 cells
T2 sequence (P55085 26-397): T1 sequence (P55085 26-397)
Summary of the method: as §1

[3] = tested on: Thrombin-stimulated Ca2+ response in HT-29 cells; experiment: Ca FLIPR TETRA assay, ANTAGONIST mode, stimulation with 1 U/mL Thrombin; assay type: cell-based, human; settings: Homo sapiens, HT-29 cells, stimulation with 1 U/mL Thrombin
Summary of the method: as §1

[4] = tested on: UTP-stimulated Ca2+ response in HT-29 cells; experiment: Ca FLIPR TETRA assay, ANTAGONIST mode, stimulation with 0.6 μM UTP; assay type: cell-based, human; settings: Homo sapiens, HT-29 cells, stimulation with 0.6 μM UTP
Summary of the method: as §1

[5] = In vivo rat pharmacokinetics (intravenous and oral); settings: plasma; for clearance: intravenous 0.5 to 1 mg/kg, read-out: Clp; for Vd: intravenous, read-out: Vss; for bioavailability: oral by gavage; for half-life: read-out: T ½ (converted)
Experimental: Example 61: Protocol for Testing PAR2 Compounds In Vivo Rat Pharmacokinetics Experiments
Compounds delivered by intravenous route were formulated using a solution formulation consisting of 5% N-methylpyrrolidone 10% Vitamin E-TPGS and 85% water (v/v/) or a solution formulation consisting of 25% N-methylpyrrolidone 35% polyethylene glycol 400 and 40% water (v/v/). Intravenous formulations were administered by a bolus injection (over approximately 10 seconds) using a hypodermic needle attaches to a syringe (tail vein). The dose volume was varied from 1 to 2 mL/kg and the dose was varied from 0.5 to 1 mg/kg. Compounds delivered orally were formulated as a solution formulation consisting of 5% N-methylpyrrolidone 10% Vitamin E-TPGS and 85% water (v/v/) or as fine suspension using a cellulose derivative suspending agent with or without the addition of a wetting agent/surfactant. Milling of large particles was performed as needed to reduce particle size using focused electroacoustic milling, homogenization or low energy media milling. A spray-dried solid dispersion was prepared for key compounds using 1:1 combination with cellulose derivatives. Test compounds were administered orally by gavage using a gavage plastic needle attached to a syringe. The dose volume was varied from 5 to 10 mL/kg and the dose was varied from 1 to 600 mg/kg.
Rats were bled by venipuncture (jugular vein) and the samples were collected into tubes containing K3EDTA. The tubes were placed on wet ice until processed. The samples were centrifuged for approximately 10 minutes (at approximately 4° C.) within approximately 30 minutes of collection to prepare plasma or diluted in citrate buffer (1:3) and stored frozen (approximately −30° C.). Thawed plasma or whole blood samples were extracted by protein precipitation using an organic solvent followed by centrifugation. The supernatants were separated by high-performance liquid chromatography coupled to mass spectrometry detection. A calibration curve was prepared using reference standard compounds spiked into either blank plasma or whole blood matrices and extracted similarly to unknown samples. Pharmacokinetic parameters were calculated using non-compartmental analysis.

[6] = tested on: carrageenan-induced paw edema; experiment: Rat carrageenan-induced paw edema model; assay type: in vivo, Sprague Dawley rats; settings: given before carrageenan challenge
Experimental: Male Sprague Dawley rats and BALB/c mice were housed in groups in a temperature controlled room and were acclimatized in the animal facility for at least three days prior to use. Experiments were performed during the light phase of the cycle. Animals have food and water ad libitum.
Example 63: Rat Carrageenan-Induced Paw Edema Model
Peripheral inflammation was induced by intra-plantar administration of 100 ul of a 1% w/volume (in saline) carrageenan solution under isoflurane anesthesia. The degree of swelling was assessed using the plethysmometer at 2-3-4-5-6 h after carrageenan injection. Test compound or vehicle (0.5% MC/0.1% SDS) was systemically administered at the indicated doses in a volume of 5 mL/kg either I-3 hour before carrageenan challenge (Table 9) or 2 hours post carrageenan challenge (Table 10).
Data are expressed as the mean % effect. Statistical significance was assessed using t-test for comparison between naive and inflamed rats, and one-way ANOVA followed by post-hoc comparison test for overall drug effectiveness. A difference between groups is considered significant with a p value of <0.05. *, p<0.05; **, p<0.01; ***, p<0.001 vs. vehicle.

In the case of `CC(C)(C)c1cc(-c2ccc(F)cc2)nn2cc(C(=O)N3CCN(C(=O)C4CC(O)(C(F)(F)F)C4)CC3(C)C)nc12` (stereo not drawn) [Compound I-199], the IC50 ([1]; antagonist mode) is reported as 0.1 nM, the IC50 ([2]; antagonist mode) is reported as 0.2 nM and the IC50 ([3]; antagonist mode) is reported as over 1000 nM. For the same molecule, the IC50 ([4]; antagonist mode) was over 1000 nM, the clearance [5] was 0.192 L/h/kg and the Vd [5] was 4.2 L/kg. For the same molecule, the bioavailability [5] was 67%, the half-life [5] was 18.1 h and the “% inhibition of carrageenan induced paw edema” value (from here on “% inhibition”) ([6]; dose 7.5 mg/kg) was 14%. The “% inhibition” value ([6]; dose 20 mg/kg) was 52*** %.

With `CC(C)(C)c1cc(-c2ccc(C(F)(F)F)cc2)nn2cc(C(=O)N3CCNC(=O)C3(C)C)nc12` [Compound I-283, 4-[8-tert-butyl-6-[4-(trifluoromethyl)phenyl]imidazo[1,2-b]pyridazine-2-carbonyl]-3,3-dimethyl-piperazin-2-one] the IC50 ([1]; antagonist mode) was 2.2 nM, the IC50 ([2]; antagonist mode) was 2 nM and the IC50 ([3]; antagonist mode) was over 1000 nM. For the same molecule, the IC50 ([4]; antagonist mode) was over 1000 nM, the clearance [5] was 0.0642 L/h/kg and the Vd [5] was 6.82 L/kg. For the same molecule, the bioavailability [5] was 76%, the half-life [5] was 77.9 h and the “% inhibition” value ([6]; dose 20 mg/kg) was 19* %.

`Cc1cc(C(=O)N2CCN(C(=O)c3cn4nc(-c5ccc(F)cc5)cc(C(C)(C)C)c4n3)C(C)(C)C2)[nH]n1` [Compound I-291] gave an IC50 ([1]; antagonist mode) of 0.2 nM, an IC50 ([2]; antagonist mode) of 0.3 nM and an IC50 ([3]; antagonist mode) of 750 nM. The IC50 ([4]; antagonist mode) was 670 nM and the “% inhibition” value ([6]; dose 5 mg/kg) was 37** %.

Molecule `CC(C)(C)c1cc(-c2ccc(F)cc2)nn2cc(C(=O)N3CCN(C(=O)c4c[nH]cn4)CC3(C)C)nc12` [Compound I-232] has an IC50 ([1]; antagonist mode) of 1 nM, an IC50 ([2]; antagonist mode) of 1.4 nM and an IC50 ([3]; antagonist mode) of 890 nM. For the same molecule, the IC50 ([4]; antagonist mode) was 900 nM, the clearance [5] was 1.01 L/h/kg and the Vd [5] was 3.3 L/kg. The bioavailability [5] was 75%, the half-life [5] was 2.5 h and the “% inhibition” value ([6]; dose 10 mg/kg) was 19* %.

`CC(C)c1cc(-c2ccc(F)cc2)nn2cc(C(=O)N3CCN(C(=O)C4(O)CCOCC4)CC3(C)C)nc12` [Compound I-27, [6-(4-fluorophenyl)-8-isopropyl-imidazo[1,2-b]pyridazin-2-yl]-[4-(4-hydroxytetrahydropyran-4-carbonyl)-2,2-dimethyl-piperazin-1-yl]methanone] gave an IC50 [1] of 59 nM, an IC50 [2] of 250 nM and an IC50 [3] of 35000 nM. For the same molecule, the IC50 [4] was 42000 nM, the “% inhibition” value ([6]; dose 3 mg/kg) was 16% and the “% inhibition” value ([6]; dose 6 mg/kg) was 25* %. The “% inhibition” value ([6]; dose 10 mg/kg) was 30%, the “% inhibition” value ([6]; dose 20 mg/kg) was 33** % and the “% inhibition” value ([6]; dose 30 mg/kg) was 31* %. For the same molecule, the “% inhibition” value ([6]; dose 60 mg/kg) was 30** %.

`C[C@@H]1C[C@H](c2cc(-c3ccc(F)cc3)nn3cc(C(=O)N4CCN(C(=O)[C@H]5C[C@](O)(C(F)(F)F)C5)CC4(C)C)nc23)C[C@H](C)O1` [Compound I-213] showed an IC50 ([1]; antagonist mode) of 3.5 nM, an IC50 ([2]; antagonist mode) of 5.4 nM and an IC50 ([3]; antagonist mode) of over 1000 nM. For the same molecule, the IC50 ([4]; antagonist mode) was over 1000 nM and the “% inhibition” value ([6]; dose 7 mg/kg) was 36* %.

Molecule `Cc1nc(C(=O)N2CCN(C(=O)c3cn4nc(-c5ccc(Cl)cc5)cc(C(C)(C)C)c4n3)C(C)(C)C2)n[nH]1` [Compound I-436, [8-tert-butyl-6-(4-chlorophenyl)imidazo[1,2-b]pyridazin-2-yl]-[2,2-dimethyl-4-(5-methyl-1H-1,2,4-triazole-3-carbonyl)piperazin-1-yl]methanone] has an IC50 ([1]; antagonist mode) of 0.3 nM, an IC50 ([2]; antagonist mode) of 0.4 nM and an IC50 ([3]; antagonist mode) of 11000 nM. For the same molecule, the IC50 ([4]; antagonist mode) was 3600 nM, the clearance [5] was 0.253 L/h/kg and the Vd [5] was 2.05 L/kg. The bioavailability [5] was 77%, the half-life [5] was 7.5 h and the “% inhibition” value ([6]; dose 1 mg/kg) was −17* %. The “% inhibition” value ([6]; dose 30 mg/kg) was 36** %.

`Cn1nnc(N2CCN(C(=O)c3cn4nc(-c5ccc(F)cc5)cc(C(C)(C)C)c4n3)C(C)(C)C2=O)n1` [Compound I-249] gave an IC50 ([1]; antagonist mode) of 0.6 nM, an IC50 ([2]; antagonist mode) of 0.7 nM and an IC50 ([3]; antagonist mode) of over 1000 nM. For the same molecule, the IC50 ([4]; antagonist mode) was over 1000 nM, the “% inhibition” value ([6]; dose 10 mg/kg) was 49*** % and the “% inhibition” value ([6]; dose 30 mg/kg) was 26* %.

Molecule `CC(C)(C)c1cc(C2CCC(F)(F)CC2)nn2cc(C(=O)N3CCN(c4cn[nH]c4)C(=O)C3(C)C)nc12` [Compound I-429] has an IC50 ([1]; antagonist mode) of 2.4 nM, an IC50 ([2]; antagonist mode) of 3.3 nM and an IC50 ([3]; antagonist mode) of over 1000 nM. The IC50 ([4]; antagonist mode) was over 1000 nM and the “% inhibition” value ([6]; dose 20 mg/kg) was 43** %.

With `CC(C)(C)c1cc(-c2ccc(Cl)cc2)nn2cc(C(=O)N3CCN(C(=O)[C@H]4C[C@@](C)(O)C4)CC3(C)C)nc12` [Compound I-421] the IC50 ([1]; antagonist mode) was 0.3 nM, the IC50 ([2]; antagonist mode) was 0.2 nM and the IC50 ([3]; antagonist mode) was over 1000 nM. The IC50 ([4]; antagonist mode) was over 1000 nM, the clearance [5] was 0.369 L/h/kg and the Vd [5] was 3.07 L/kg. For the same molecule, the bioavailability [5] was 189%, the half-life [5] was 9.62 h and the “% inhibition” value ([6]; dose 1 mg/kg) was 11%. For the same molecule, the “% inhibition” value ([6]; dose 10 mg/kg) was −32** %.

With `CC(C)(C)c1cc(-c2ccc(F)cc2)nn2cc(C(=O)N3CCN(C(=O)c4nc[nH]n4)CC3(C)C)nc12` [Compound I-227] the IC50 ([1]; antagonist mode) was 0.7 nM, the IC50 ([2]; antagonist mode) was 1.6 nM and the IC50 ([3]; antagonist mode) was 570 nM. The IC50 ([4]; antagonist mode) was 420 nM, the “% inhibition” value ([6]; dose 0.3 mg/kg) was 35* % and the “% inhibition” value ([6]; dose 10 mg/kg) was 64** %.

With `Cc1nnc(C(=O)N2CCN(C(=O)c3cn4nc(C5CCC(F)(F)CC5)cc(C(C)(C)C)c4n3)C(C)(C)C2)[nH]1` [Compound I-448, [8-tert-butyl-6-(4,4-difluorocyclohexyl)imidazo[1,2-b]pyridazin-2-yl]-[2,2-dimethyl-4-(5-methyl-4H-1,2,4-triazole-3-carbonyl)piperazin-1-yl]methanone] the IC50 ([1]; antagonist mode) was 6.9 nM, the IC50 ([2]; antagonist mode) was 11.4 nM and the IC50 ([3]; antagonist mode) was 17500 nM. For the same molecule, the IC50 ([4]; antagonist mode) was 14500 nM, the clearance [5] was 0.386 L/h/kg and the Vd [5] was 1.84 L/kg. For the same molecule, the bioavailability [5] was 87%, the half-life [5] was 5.14 h and the “% inhibition” value ([6]; dose 20 mg/kg) was 15%.

With `Cc1nnc(C(=O)N2CCN(C(=O)c3cn4nc(-c5ccc(F)cc5)cc(C(C)(C)C)c4n3)C(C)(C)C2)o1` [Compound I-288] the IC50 ([1]; antagonist mode) was 1.2 nM, the IC50 ([2]; antagonist mode) was 1.8 nM and the IC50 ([3]; antagonist mode) was 770 nM. The IC50 ([4]; antagonist mode) was over 1000 nM and the “% inhibition” value ([6]; dose 10 mg/kg) was 48*** %.
